These compounds were tested on MDA-MB-361 (assay: MDA-MB-361 proliferation). Settings: Homo sapiens; in vitro IC50, MDA-MB-361 cells.
Assay type: cell-based
Description: The ability of one or more subject compounds to inhibit tumor cell line proliferation is determined according to standard procedures known in the art. For instance, an in vitro cellular proliferation assay can be performed to measure the metabolic activity of live cells. The assay is performed in a 96 well microtiter plate using Alamar Blue reduction. Human tumor cell lines are obtained from ATCC (e.g., MCF7, U-87 MG, MDA-MB-468, PC-3), grown to confluency in T75 flasks, trypsinized with 0.25% trypsin, washed one time with Tumor Cell Media (DMEM+10% FBS), and plated in 90 ul at 5,000 cells/well in Tumor Cell Media. A compound disclosed herein is diluted in Tumor Cell Media and added in a 10 ul volume. Plates are incubated for 72 hours at 37 C and 5% CO2. A volume of 10 uL of Alamar Blue reagent is added to each well and plates are incubated for 3 hours at 37 C and 5% CO2. Alamar Blue fluoresce is read at 560 Ex/590 Em, and IC50 values are calculated using GraphPad Prism 5.
Cells comprising one or more mutations in PI3Kα, including but not limited to breast cancer cells (e.g., MDA-MB-361 and T47D), and cells comprising one or more mutations in PTEN including but not limited to prostate cancer cells (e.g., PC3), are typically grown in cell growth media such as DMEM supplemented with fetal bovine serum and/or antibiotics, and grown to confluency. Cells are then treated with various concentrations of test compound for about 2 hours and subsequently lysed in cell lysis buffer. Lysates are subjected to SDS-PAGE followed by Western blot analysis to detect downstream signaling markers, including but not limited to pAKT(S473), pAKT(T308), pS6, and p4E-BP1. Degree of proliferation (and proliferation inhibition) can also be measured for cells at various doses of compound of the present invention.

| Compound | IC50 |
| --- | --- |
| C[C@H]1CN(c2cnc3ccc(-c4ccc5oc(N)nc5c4)nc3n2)CCN1 [Compound 1] | < 10 µM |
| Nc1nc2cc(-c3ccc4ncc(N5CCOCC5)nc4n3)ccc2o1 [Compound 2, 5-(3-morpholinopyrido[2,3-b]pyrazin-6-yl)benzo[d]oxazol-2-amine] | < 1 µM |
| CN1CCN(c2cnc3ccc(-c4ccc5oc(N)nc5c4)nc3n2)CC1 [Compound 4] | < 10 µM |
| Nc1nc2cc(-c3ccc4ncc(N5CC(N6CCOCC6)C5)nc4n3)ccc2o1 [Compound 5] | < 10 µM |
| CCOC(=O)N1CCN(c2cnc3ccc(-c4ccc5oc(N)nc5c4)nc3n2)CC1 [Compound 6] | < 1 µM |
| CS(=O)(=O)N1CCN(C2CN(c3cnc4ccc(-c5ccc6oc(N)nc6c5)nc4n3)C2)CC1 [Compound 8] | < 10 µM |
| CCOC(=O)N1CC=C(c2cnc3ccc(-c4ccc5oc(N)nc5c4)nc3n2)CC1 [Compound 9] | < 1 µM |
| C[C@H]1CN(C2CN(c3cnc4ccc(-c5ccc6oc(N)nc6c5)nc4n3)C2)CCN1 [Compound 10] | < 10 µM |
| C[C@@H]1CN(C2CN(c3cnc4ccc(-c5ccc6oc(N)nc6c5)nc4n3)C2)CCN1 [Compound 12] | < 10 µM |
| Nc1nc2cc(-c3ccc4ncc(N5CCC(F)(F)CC5)nc4n3)ccc2o1 [Compound 13] | < 10 µM |
| C[C@@H]1COCCN1c1cnc2ccc(-c3ccc4oc(N)nc4c3)nc2n1 [Compound 14] | < 1 µM |
| C[C@H]1COCCN1c1cnc2ccc(-c3ccc4oc(N)nc4c3)nc2n1 [Compound 15] | < 1 µM |
| Nc1nc2cc(-c3ccc4ncc(-c5cccnc5)cc4n3)ccc2o1 [Compound 16] | > 10 µM |
| C[C@H]1CN(C2CN(c3cnc4ccc(-c5ccc6oc(N)nc6c5)nc4n3)C2)CCN1C [Compound 21] | < 10 µM |
| Nc1nc2cc(-c3ccc4ncc(N5CCOCC5)cc4n3)ccc2o1 [Compound 22] | < 10 µM |
| CN1CCN(c2cnc3ccc(-c4ccc5oc(N)nc5c4)nc3c2)CC1 [Compound 24] | < 10 µM |
| C[C@@H]1CN(C2CN(c3cnc4ccc(-c5ccc6oc(N)nc6c5)nc4n3)C2)CCN1C [Compound 25] | < 10 µM |
| C[C@@H]1CN(c2cnc3ccc(-c4ccc5oc(N)nc5c4)nc3n2)CCN1 [Compound 27] | < 10 µM |
| Nc1nc2cc(-c3ccc4ncc(N5CCNC(=O)C5)nc4n3)ccc2o1 [Compound 29] | < 1 µM |

| Compound | IC50 |
| --- | --- |
| C[C@@H](N)C(=O)N1CCN(c2cnc3ccc(-c4ccc5oc(N)nc5c4)nc3n2)CC1 [Compound 31] | < 10 µM |
| CC(C)N1CCN(c2cnc3ccc(-c4ccc5oc(N)nc5c4)nc3n2)CC1 [Compound 32] | < 10 µM |
| NCC(=O)N1CCN(c2cnc3ccc(-c4ccc5oc(N)nc5c4)nc3n2)CC1 [Compound 33] | > 10 µM |
| Nc1nc2cc(-c3ccc4ncc(N5CC(N6CCNCC6)C5)nc4n3)ccc2o1 [Compound 34] | > 10 µM |
| Nc1nc2cc(-c3ccc4ncc(N5CC(N6CCN(CC7CC7)CC6)C5)nc4n3)ccc2o1 [Compound 35] | < 10 µM |
| CCOC(=O)N1CCN(c2cnc3ccc(-c4ccc5oc(N)nc5c4)nc3c2)CC1 [Compound 36] | < 1 µM |
| NCC(=O)N1CCN(c2cnc3ccc(-c4ccc5oc(N)nc5c4)nc3c2)CC1 [Compound 37] | < 10 µM |
| C[C@H](N)C(=O)N1CCN(c2cnc3ccc(-c4ccc5oc(N)nc5c4)nc3c2)CC1 [Compound 38] | < 10 µM |
| C[C@@H](N)C(=O)N1CCN(c2cnc3ccc(-c4ccc5oc(N)nc5c4)nc3c2)CC1 [Compound 39] | < 10 µM |
| CC(C)(N)C(=O)N1CCN(c2cnc3ccc(-c4ccc5oc(N)nc5c4)nc3n2)CC1 [Compound 40] | < 10 µM |
| Nc1nc2cc(-c3ccc4ncc(N5CCN(C(=O)C6(N)CC6)CC5)nc4n3)ccc2o1 [Compound 41] | < 10 µM |
| Nc1nc2cc(-c3ccc4ncc(N5CCN(C(=O)C6(N)CC6)CC5)cc4n3)ccc2o1 [Compound 42] | < 1 µM |
| CC(C)(N)C(=O)N1CCN(c2cnc3ccc(-c4ccc5oc(N)nc5c4)nc3c2)CC1 [Compound 43, 2-amino-1-(4-(6-(2-aminobenzo[d]oxazol-5-yl)-1,5-naphthyridin-3-yl)piperazin-1-yl)-2-methylpropan-1-one] | < 1 µM |
| CC(C)N1CCN(c2cnc3ccc(-c4ccc5oc(N)nc5c4)nc3c2)CC1 [Compound 44] | < 10 µM |
| Nc1nc2cc(-c3ccc4ncc(N5CCC(O)CC5)nc4n3)ccc2o1 [Compound 45] | < 1 µM |
| Nc1nc2cc(-c3ccc4ncc(N5CC(N6CCN(CCO)CC6)C5)nc4n3)ccc2o1 [Compound 46] | < 10 µM |
| C[C@H]1CN(c2cnc3ccc(-c4ccc5oc(N)nc5c4)nc3c2)CCN1 [Compound 47] | < 10 µM |
| C[C@@H]1CN(c2cnc3ccc(-c4ccc5oc(N)nc5c4)nc3c2)CCN1 [Compound 48] | < 10 µM |
| Cc1nccn1C1CN(c2cnc3ccc(-c4ccc5oc(N)nc5c4)nc3n2)C1 [Compound 50] | < 10 µM |

| Compound | IC50 |
| --- | --- |
| CC1(C)CN(C2CN(c3cnc4ccc(-c5ccc6oc(N)nc6c5)nc4n3)C2)CCN1 [Compound 52] | < 1 µM |
| Nc1nc2cc(-c3ccc4ncc(N5CC(N6CCOCC6)C5)cc4n3)ccc2o1 [Compound 53] | < 10 µM |
| C[C@H]1CN(C2CN(c3cnc4ccc(-c5ccc6oc(N)nc6c5)nc4c3)C2)CCN1 [Compound 54] | < 1 µM |
| C[C@H]1CN(C2CN(c3cnc4ccc(-c5ccc6oc(N)nc6c5)nc4c3)C2)CCN1C [Compound 55] | < 1 µM |
| C[C@@H]1CN(C2CN(c3cnc4ccc(-c5ccc6oc(N)nc6c5)nc4c3)C2)CCN1 [Compound 56] | < 1 µM |
| C[C@@H]1CN(C2CN(c3cnc4ccc(-c5ccc6oc(N)nc6c5)nc4c3)C2)CCN1C [Compound 57] | < 1 µM |
| CC1(C)CN(C2CN(c3cnc4ccc(-c5ccc6oc(N)nc6c5)nc4c3)C2)CCN1 [Compound 58] | < 1 µM |
| Nc1nc2cc(-c3ccc4ncc(N5CC(N6CCN(CC7CC7)CC6)C5)cc4n3)ccc2o1 [Compound 60] | < 1 µM |
| C[C@H]1COCCN1C1CN(c2cnc3ccc(-c4ccc5oc(N)nc5c4)nc3n2)C1 [Compound 61] | > 10 µM |
| Nc1nc2cc(-c3ccc4ncc(N5CCC(O)CC5)cc4n3)ccc2o1 [Compound 62] | < 10 µM |
| Cc1nccn1C1CN(c2cnc3ccc(-c4ccc5oc(N)nc5c4)nc3c2)C1 [Compound 63] | < 10 µM |
| CN1CCN(C2CN(c3cnc4ccc(-c5ccc6oc(N)nc6c5)nc4c3)C2)CC1=O [Compound 64] | < 1 µM |
| Nc1nc2cc(-c3ccc4ncc(N5CC(N6CCN(CCO)CC6)C5)cc4n3)ccc2o1 [Compound 65] | < 1 µM |
| C[C@@H]1COCCN1C1CN(c2cnc3ccc(-c4ccc5oc(N)nc5c4)nc3c2)C1 [Compound 66] | < 10 µM |
| C[C@H]1COCCN1C1CN(c2cnc3ccc(-c4ccc5oc(N)nc5c4)nc3c2)C1 [Compound 68] | < 10 µM |
| Nc1nc2cc(-c3ccc4ncc(N5CC(N6CCN(C7CC7)CC6)C5)nc4n3)ccc2o1 [Compound 69] | < 10 µM |
| Nc1nc2cc(-c3ccc4ncc(N5CC(N6CCN(C7CC7)CC6)C5)cc4n3)ccc2o1 [Compound 70] | < 10 µM |
| CN1CCN(C2CN(c3cnc4ccc(-c5ccc6oc(N)nc6c5)nc4n3)C2)CC1 [Compound 71] | < 10 µM |
